Tests used:
[1] = tested on: buckhorn plantain (Plantago lanceolata, PLALA); assay: Field trial, post-emergence foliar application, weed control of buckhorn plantain; assay type: in vivo; conditions: applied alone
Description: The (a) aminocyclopyrachlor or an agriculturally acceptable salt or ester thereof is mixed with or applied in combination with (b) clopyralid or an agriculturally acceptable salt or ester thereof in an amount sufficient to induce a synergistic herbicidal effect. […] As described in the Herbicide Handbook of the Weed Science Society of America, Ninth Edition, 2007, p. 429, “'synergism' [is] an interaction of two or more factors such that the effect when combined is greater than the predicted effect based on the response to each factor applied separately.” Synergistic in the herbicide context can mean that the use of (a) and (b) as defined above results in an increased weed control effect compared to the weed control effects that are possible with the use of (a) or (b) alone. In some embodiments, the damage or injury to the undesired vegetation caused by the compositions and methods disclosed herein is evaluated using a scale from 0% to 100%, when compared with the untreated control vegetation, wherein 0% indicates no damage to the undesired vegetation and 100% indicates complete destruction of the undesired vegetation. […] 22 (1967) Field trials were conducted with applications made to established grassland with naturally occurring weed populations. The target plants were treated with postemergence foliar applications when they reached three to five inches tall. All treatments were applied using a randomized complete block trial design, with 4 replications per treatment. Treatments consisted of aminocyclopyrachlor in acid form and clopyralid-olamine, each in water and applied alone or in combination. Spray solutions were prepared using an appropriate amount of dilution to form a 2 L aqueous spray solution with active ingredients in single and two way combinations. Formulated compounds were applied to the plant material with a backpack sprayer equipped with 8003 nozzles calibrated to deliver 187 L/ha at a spray height of 18 inches (43 centimeters (cm)) above average plant canopy. The treated plants were buckhorn plantain (Plantago lanceolata, PLALA) and […] clover (Medicago arabica, MEDAB). The treated plots and control plots were rated blind at various intervals after application. Ratings were based on a scale of 0-100%, as discussed above, wherein 0% indicates no damage to the undesired vegetation and 100% indicates complete destruction of the undesired vegetation Colby's equation was used to determine the herbicidal effects expected from the mixtures, as described above. The results were measured at 7 days and 27 days after the first application of the compositions. […] The herbicide tank mix combinations tested, application rates and ratios employed, plant species tested, and results are given below.

[2] = tested on: calvary clover (Medicago arabica, MEDAB); assay: Field trial, post-emergence foliar application, weed control of calvary clover; assay type: in vivo; conditions: 27 days, applied alone
Description: The (a) aminocyclopyrachlor or an agriculturally acceptable salt or ester thereof is mixed with or applied in combination with (b) clopyralid or an agriculturally acceptable salt or ester thereof in an amount sufficient to induce a synergistic herbicidal effect. […] As described in the Herbicide Handbook of the Weed Science Society of America, Ninth Edition, 2007, p. 429, “'synergism' [is] an interaction of two or more factors such that the effect when combined is greater than the predicted effect based on the response to each factor applied separately.” Synergistic in the herbicide context can mean that the use of (a) and (b) as defined above results in an increased weed control effect compared to the weed control effects that are possible with the use of (a) or (b) alone. In some embodiments, the damage or injury to the undesired vegetation caused by the compositions and methods disclosed herein is evaluated using a scale from 0% to 100%, when compared with the untreated control vegetation, wherein 0% indicates no damage to the undesired vegetation and 100% indicates complete destruction of the undesired vegetation. […] 22 (1967) Field trials were conducted with applications made to established grassland with naturally occurring weed populations. The target plants were treated with postemergence foliar applications when they reached three to five inches tall. All treatments were applied using a randomized complete block trial design, with 4 replications per treatment. Treatments consisted of aminocyclopyrachlor in acid form and clopyralid-olamine, each in water and applied alone or in combination. Spray solutions were prepared using an appropriate amount of dilution to form a 2 L aqueous spray solution with active ingredients in single and two way combinations. Formulated compounds were applied to the plant material with a backpack sprayer equipped with 8003 nozzles calibrated to deliver 187 L/ha at a spray height of 18 inches (43 centimeters (cm)) above average plant canopy. […] The results were measured at 7 days and 27 days after the first application of the compositions. […]

SMILES	Mean % weed control ([1]; 7 days, 18 g ae/ha) [%]	Mean % weed control ([1]; 27 days, 18 g ae/ha) [%]	Mean % weed control ([1]; 27 days, 35 g ae/ha) [%]	Mean % weed control ([2]; 18 g ae/ha) [%]	Mean % weed control ([1]; 7 days, 35 g ae/ha) [%]	Mean % weed control ([1]; 27 days, 70 g ae/ha) [%]	Mean % weed control ([2]; 35 g ae/ha) [%]	Mean % weed control ([2]; 70 g ae/ha) [%]
Nc1nc(C2CC2)nc(C(=O)O)c1Cl [Aminocyclopyrachlor, 6-amino-5-chloro-2-cyclopropylpyrimidine-4-carboxylic acid]	18.75	22.5	35	27.5				
O=C(O)c1nc(Cl)ccc1Cl [Clopyralid-olamine, clopyralid-olamine]					18	28	13	30

— patent publication US9320274B2, “Synergistic weed control from applications of aminocyclopyrachlor and clopyralid” (Dow AgroSciences LLC, priority 2012, dated 2016)
